Experimental findings from patent US5563151A, “Amino acid derivatives as paf-receptor antagonists” (British Biotech Pharmaceuticals limited, priority 1992, dated 1996) are described below.

The target of experiment [1] is T1, PAF receptor (human platelet plasma membrane) (Homo sapiens, UniProt P25105).
T1 construct: Platelet concentrates were obtained from a hospital blood bank; from tissue; host or cells: human platelets (hospital blood bank concentrates), lysed platelet membranes
The experiment can be described thus: Inhibition of [^3 H]-PAF Receptor Binding. The following applies: human platelet plasma membranes; [^3 H]-PAF 0.5 nM; 0° C., 1 hour, pH 7.0. As to the method:
(§1) Compounds of general formula I inhibit PAF-induced functions in both the cellular and tissue levels by changing the PAF binding to its specific receptor site. The ability of compounds of general formula I to inhibit the binding of PAF to its specific receptor binding site on human platelet plasma membranes was measured according to Example 150. The ability of compounds of general formula I to reverse the hypotension caused by an infusion of PAF in rats was measured according Example 151.
Inhibition of [^3 H]-PAF Receptor Binding
The inhibition of [^3 H]-PAF binding to human platelet plasma membrane by compounds of general formula I was determined by isotopic labelling and filtration techniques. Platelet concentrates were obtained from a hospital blood bank. These platelet concentrates (500-2500 ml.) were centrifuged at 800 rpm for 10 minutes in a SORVALL RC3B centrifuge to remove the red blood cells present. (The word SORVALL is a trade mark.) The supernatant was subsequently centrifuged at 3,000 rpm in a SORVALL RC3B centrifuge to pellet the platelets present. The platelet rich pellets were resuspended in a minimum volume of buffer (150 mM NaCl, 10 mM Tris, 2 mM EDTA, pH 7.5) and layered onto Ficoll-Paque gradients, 9 ml platelet concentrate to 2 ml Ficoll, and centrifuged at 1,900 rpm for 15 minutes in a SORVALL RT6000 centrifuge. This step removes the residual red blood cells and other nonspecific material such as lymphocytes from the preparation. The platelets which form a band between the plasma and the Ficoll were removed, resuspended in the above buffer and centrifuged at 3,000 rpm for 10 minutes in a SORVALL RT6000 centrifuge. […]
The assay was conducted by preparing a series of Tris-buffered solutions of the selected antagonist of predetermined concentrations. […] Each washed residue was dried under vacuum on a sampling manifold and placed into vials containing 20 ml of OPTIPHASE MP scintillation fluid and the radioactivity counted in a liquid scintillation counter. […]

For another experiment, the system named is PAF-induced hypotension. Description: Inhibition of PAF-Induced Hypotension in the Rat. The format is in vivo, rat (male Sprague-Dawley). The following applies: iv, i.v. bolus, PAF 100 ng/kg/min i.v. infusion, anaesthetised rats, read-out: ED50 (dose to cause a 50% reversal of the hypotensive PAF response). As to the method:
as §1
Inhibition of PAF-Induced Hypotension in the Rat
Male Sprague-Dawley rats (300-350 g) were anaesthetised with a mixture of sodium pentobarbitone, 22.5 mg/kg and thiopental 62.5 mg/kg. Through a midline incision in the neck, the trachea was cannulated and the animals breathed spontaneously. A carotid artery was cannulated for the measurement of blood pressure and this signal was used to trigger a rate meter to measure heart rate. Both jugular veins were cannulated: one for the infusion of PAF and the other for the bolus administration of test compounds.
PAF, 100 ng/kg/min was infused i.v. until a sustained fall in mean blood pressure of 50 mmHg was achieved. […] The peak of this reversal was measured and the dose to cause a 50% reversal of the hypotensive PAF response (ED50) calculated by straight line interpolation and the results are presented in Table 2.

T1 sequence (P25105 whole entry): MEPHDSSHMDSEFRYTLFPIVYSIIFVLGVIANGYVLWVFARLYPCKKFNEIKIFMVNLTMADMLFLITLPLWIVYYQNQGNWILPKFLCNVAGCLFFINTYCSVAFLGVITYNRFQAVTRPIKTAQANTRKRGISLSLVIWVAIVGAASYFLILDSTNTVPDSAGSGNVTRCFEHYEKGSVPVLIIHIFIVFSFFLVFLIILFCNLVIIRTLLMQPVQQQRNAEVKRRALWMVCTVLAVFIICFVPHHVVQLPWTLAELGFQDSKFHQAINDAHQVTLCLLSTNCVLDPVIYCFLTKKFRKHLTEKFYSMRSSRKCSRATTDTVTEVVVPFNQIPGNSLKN

The term IC50 denotes the concentration at which inhibition is half-maximal. A higher IC50 goes with a need for much substance. Consider `CCOC(=O)[C@H](CC(C)C)NC(=O)CCCCCn1c(C)nc2cnccc21` [Example 1B, N-6-(2-methylimidazo[4,5-c]pyridin-1-yl)hexanoyl-L-leucine ethyl ester], for which, in experiment [1], the concentration for half-maximal inhibition (IC50) was 15 nM.
For orientation: ED50 means the midpoint of the dose-response relation. Take `CCOC(=O)[C@H](CC(C)C)NC(=O)CCCn1c(C)nc2cnccc21` [Example 11B, N-4-(2-methylimidazo[4,5-c]pyridin-1-yl)butanoyl-L-leucine ethyl ester]: the IC50 in experiment [1] is 3 nM. Moreover, the ED50 in the experiment on PAF-induced hypotension came out at 0.0305 mg/kg.
Consider `CCOC[C@H](CC(C)C)NS(=O)(=O)CCCn1c(C)nc2cnccc21` [Example 33B, N-4-(2-methylimidazo[4,5-c]pyridin-1-yl)propylsulphonyl-L-leucinyl ethyl ether], for which the 50% effective dose (ED50) in the experiment on PAF-induced hypotension worked out at 0.0018 mg/kg.
The compound `CCOC(=O)[C@H](CC(C)C)NC(=O)CCCCCCCCCCn1c(C)nc2cnccc21` [Example 98B, N-11-(2-methylimidazo[4,5-c]pyridin-1-yl)undecanoyl-L-leucine ethyl ester] yielded an IC50 in experiment [1] of 1 nM. In other words, the single-digit nanomolar range.
